Laboratory results taken from ChEMBL document CHEMBL1152348, “Discovery of 3-aryl-5-aryl-1,2,4-oxadiazoles as a new series of apoptosis inducers. 2. Identification of more aqueous soluble analogs as potential anticancer agents” (Bioorg Med Chem Lett, 2009).
In brackets after ≈: the same amount, converted by molar mass. Activity calls are given as the source filed them. No cut-off for these calls is given here.

What was measured:
[1] = Growth inhibition of human H1299 cells after 48 hrs; type: functional; settings: NCI-H1299, 48 h
NCI-H1299 = experiment: Induction of apoptosis in human H1299 cells assessed as caspase activation after 48 hrs; type: functional, cell-based; settings: NCI-H1299, 48 h
DLD-1 = experiment: Induction of apoptosis in human DLD1 cells assessed as caspase activation after 48 hrs; type: functional, cell-based; settings: DLD-1, 48 h
T47D [2] = experiment: Growth inhibition of human T47D cells after 48 hrs; type: functional
T47D [3] = experiment: Induction of apoptosis in human T47D cells assessed as caspase activation after 48 hrs; type: functional, cell-based
MX1 = experiment: Antitumor activity against human MX1 cells xenografted in Crl:Nu/Nu-nuBR mouse assessed as inhibition of tumor growth at 20 mg/kg, iv daily once for day 1 to 5 and 8 to 12; type: functional, organism-based; design: dose 20 mg/kg
Mus musculus = experiment: Toxicity in Crl:Nu/Nu-nuBR mouse assessed as decrease of body weight at 20 mg/kg, iv daily once for day 1 to 5 and 8 to 12; type: organism-based; design: dose 20 mg/kg, route intravenous; scale not given: the % may be the effect or the level left; settings: in vivo
[4] = Solubility in DMSO/ethanol/cremophor EL/D5W solution; type: physicochemical
[5] = Solubility in ethanol/cremophor EL/D5W solution; type: physicochemical
[6] = Aqueous solubility in dextrose 5% in water; type: physicochemical

Row | SMILES | EC50 (NCI-H1299) | EC50 (DLD-1) | GI50 (T47D [2]) | EC50 (T47D [3]) | GI50 [1] | other results
1 | CC(=O)O[C@H]1C(=O)[C@@]2(C)[C@H]([C@H](OC(=O)c3ccccc3)[C@]3(O)C[C@H](OC(=O)[C@H](O)[C@@H](NC(=O)c4ccccc4)c4ccccc4)C(C)=C1C3(C)C)[C@]1(OC(C)=O)CO[C@@H]1C[C@@H]2O [PACLITAXEL] | 98 nM | 54 nM | 26 nM | – | 23 nM | –
2 | OCc1cc(Cl)ccc1-c1noc(-c2occc2Br)n1 | > 10000 nM | – | 500 nM | 2900 nM | > 10000 nM | solubility [5]: 4000 µg/mL (≈ 11.2 mM)
3 | Cc1cc(-c2noc(-c3sccc3Cl)n2)ccc1Cl | > 10000 nM | 590 nM | – | 1700 nM | – | –
4 | Cc1cc(Cl)cnc1-c1noc(-c2occc2Br)n1 | > 10000 nM | 1200 nM | 660 nM | 940 nM | > 10000 nM | solubility [5]: 3800 µg/mL (≈ 11.2 mM)
5 | COc1cc2c(c(OC)c1OC)-c1ccc(OC)c(=O)cc1[C@@H](NC(C)=O)CC2 [COLCHICINE] | – | 180 nM | 140 nM | – | 63 nM | –
6 | O=P([O-])([O-])OCc1cc(Cl)ccc1-c1noc(-c2occc2Br)n1.[Na+].[Na+] | – | – | – | – | – | solubility [6]: 10000 µg/mL
7 | Clc1ccc(-c2noc(-c3occc3Br)n2)c(CBr)c1 | 2300 nM | – | – | 2200 nM | – | –
8 | CN(C)CCNc1cc(-c2noc(-c3sccc3Cl)n2)ccc1Cl | > 10000 nM | > 10000 nM | – | > 10000 nM | – | –

Second part, led by results:

Row | EC50 (NCI-H1299) | EC50 (DLD-1) | GI50 (T47D [2]) | EC50 (T47D [3]) | SMILES | GI50 [1] | other results
9 | > 10000 nM | 710 nM | 130 nM | 1100 nM | Cc1cc(Cl)ccc1-c1noc(-c2occc2Br)n1 | > 10000 nM | inhibition (MX1): Active; Activity (Mus musculus): < 10%; solubility [4]: 4800 µg/mL (≈ 14.1 mM)
10 | > 10000 nM | 440 nM | 190 nM | 1200 nM | Clc1ccc(-c2noc(-c3sccc3Cl)n2)cc1 | > 10000 nM | –
11 | > 10000 nM | 540 nM | – | 2100 nM | CN(C)c1cc(-c2noc(-c3sccc3Cl)n2)ccc1Cl | – | –
12 | > 10000 nM | 380 nM | – | 910 nM | Cc1cc(Cl)ccc1-c1noc(-c2sccc2Cl)n1 | – | –
13 | > 10000 nM | 370 nM | – | 1400 nM | Clc1ccc(-c2noc(-c3sccc3Cl)n2)cc1Cl | – | –
14 | > 10000 nM | 1100 nM | – | 3100 nM | Nc1cc(Cl)ccc1-c1noc(-c2sccc2Cl)n1 | – | –
15 | > 10000 nM | 580 nM | – | 2400 nM | Nc1cc(-c2noc(-c3sccc3Cl)n2)ccc1Cl | – | –
16 | 8600 nM | 1100 nM | – | 4500 nM | Clc1ccc(-c2noc(-c3sccc3Cl)n2)c(CBr)c1 | – | –
17 | 82 nM | 160 nM | – | – | CC[C@]1(O)C[C@@H]2CN(CCc3c([nH]c4ccccc34)[C@@](C(=O)OC)(c3cc4c(cc3OC)N(C)[C@H]3[C@@](O)(C(=O)OC)[C@H](OC(C)=O)[C@]5(CC)C=CCN6CC[C@]43[C@@H]65)C2)C1 [VINBLASTINE] | – | –
18 | > 10000 nM | – | – | > 10000 nM | O=P(O)(O)OCc1cc(Cl)ccc1-c1noc(-c2occc2Br)n1 | – | –
